Data reported in patent publication US20200032249A1, “LABELING, ISOLATION, & ANALYSIS OF RNA FROM RARE CELL POPULATIONS” (priority 2017, published 2020).

Assays:
[1] = test system: 293T cells; assay: anti-BrdU immunofluorescent staining of 293T cells treated with 5-FC or 5-FU; type: cell-based, human; details: untransfected control 293T cells, 250 μM, 24 h
Protocol: S. cerevisiae CD was exogenously expressed in human embryonic kidney 293T cells, and the cells were treated with 250 μM fluorocytosine (5-FC). This system is predicted to generate intracellular fluorouracil (5-FU), which is then incorporated into newly synthesized RNAs (FIG. 1a, b). Antibodies against bromodeoxyuridine (BrdU) can recognize BrdU and other halogenated uridines incorporated into nucleic acids (8).
Human embryonic kidney transformed with […] (293T) and human breast cancer MDA-MB-231 (MDA231) cells were cultured in DMEM High Glucose medium (Wheaton) supplemented with 10% Fetal Bovine Serum (Clontech, Catalog number 631106) supplemented with 2 mM L-Glutamine. All cell lines have been routinely tested for mycoplasma contamination. For the induction of CD or CD and UPRT, cells were treated with 1 μg/ml doxycycline for 24 h. For Fluorouracil tagging, cells were treated with 250 μM of 5-FC or 5-FU unless indicated. Where indicated, 125 μM thymine was added together with 5-FC. For the formation of stress granules, cells were treated with 500 μM Sodium Arsenite (Santa Cruz Biotechnologies, Catalog number SC-301816).
Cells were fixed with 4% paraformaldehyde for 10 min, permeabilized with 0.2% TritonX-100 for 10 min, blocked with 5% BSA for one hour at room temperature, prior to incubation with primary antibodies at 4° C. overnight, and secondary antibodies (Thermo Fisher anti-chicken antibody, Catalog number A-11039, Thermo Fisher anti-rat antibody, Catalog number A-11006, Abcam anti-rat antibody, Catalog number ab150117) incubated for 1 h at room temperature. Mouse lungs were fixed in 4% paraformaldehyde overnight at 4° C., embedded in paraffin and sectioned. The lung sections were deparaffinized and stained with hematolxylin/eosin or immunostained using standard protocols. Automated image analysis was performed using the FIJI software package.

[2] = test system: MDA231 cells; assay: stress granule formation by G3BP immunostaining; type: cell-based; details: 500 μM sodium arsenite, positive control
Protocol: FIG. 2a-b. Flura-tagging has minimal cytotoxicity. FIG. 2a—Effect of Flura-tagging on stress granule formation. MDA231 cells were treated with 5-FC for the indicated times, and the formation of stress granules was detected by G3BP immunostaining. Control cells were either treated with water or sodium arsenite (Arsenite) for one hour. Arrows indicate stress granules (n=3). Scale bar=20 μM. FIG. 2b—Effect of Flura-tagging on transcription. RNA expression in control cells was compared to CD/UPRT-expressing cells treated with the indicated concentrations of 5-FC for 4 h or 12 h. Each dot represents a gene, with the outer/lighter gray dots indicating genes showing more than 2-fold differential expression, as determined by DESeq2 (n=2). The dotted line represents the four-fold cutoff mark.
5-FU is extensively used as a chemotherapeutic agent for the treatment of solid tumors, based on its ability to induce cancer cell death by inhibiting thymidylate synthase and by causing DNA and RNA damage (12-14). It was therefore crucial to test whether our 5-FU-tagging method, which is based on low concentrations of 5-FC and short incubation time periods, has significant cytotoxic effects under our experimental conditions. CD/UPRT-expressing cells were treated with 5-FC at concentrations of up to 250 μM for up to 12 h (“Flura-tagged” cells), and the effects of this treatment on RNA damage response and transcriptional regulation were investigated.
A key feature of the RNA damage response is the formation of stress granules (15). Ras GTPase-activating protein-binding protein 1 (G3BP), a key component of stress granules, forms distinct foci during stress granule formation (12). We determined the dose- and time-dependent effect of 5-FC treatment on stress granule formation by immunostaining of the cells with anti-G3BP antibody. […] The 5-FC-treated cells started to form stress granules only after 24 h of treatment with 1 mM 5-FC, a concentration four times higher than the maximal concentration of 5-FC used for Flura-tagging, or after 48 h of 5-FC treatment at lower concentrations (FIG. 2a).
Human embryonic kidney transformed with […] (293T) and human breast cancer MDA-MB-231 (MDA231) cells were cultured in DMEM High Glucose medium (Wheaton) supplemented with 10% Fetal Bovine Serum (Clontech, Catalog number 631106) supplemented with 2 mM L-Glutamine. All cell lines have been routinely tested for mycoplasma contamination. For the induction of CD or CD and UPRT, cells were treated with 1 μg/ml doxycycline for 24 h. For Fluorouracil tagging, cells were treated with 250 μM of 5-FC or 5-FU unless indicated. Where indicated, 125 μM thymine was added together with 5-FC. […]

[3] = test system: MDA231 cells expressing CD/UPRT in mouse lungs; assay: signal-to-noise ratio of Flura-tagging and TU-tagging in vivo, lung colonization xenograft, RT-PCR; details: 250 mg/kg, 12 h post injection
Protocol: FIG. 3 a-g. Flura-tagging of mRNA in vivo. FIG. 3a—Schematic diagram of lung colonization xenograft assay used for evaluation of Flura-tagging/Flura-seq. Athymic mice were injected through the tail vein with 50,000 MDA231 cells expressing CD/UPRT and GFP-luciferase. Upon the development of detectable bioluminescent lung metastases (4 weeks), mice were treated with doxycycline to induce CD/UPRT expression and injected with 5-FC. Lungs were harvested, and Flura-tagged mRNAs were immunopurified. FIG. 3b—Comparison of signal-to-noise ratio of Flura-tagging and TU-tagging in vivo. Mice were injected with either 5-FC or TU, the Flura-tagged or TU-tagged mRNAs were purified 12 h post injection, and the relative fold enrichment of representative human housekeeping genes relative to representative murine housekeeping genes (mHPRT1, mLDH1, mPGK1 and mGAPDH), normalized to their corresponding unpurified inputs, were measured by RT-PCR (n=5, ±S.E.). FIG. 3c—Quantification of the number of human cells in the mouse lungs used for Flura-tagging. Half of the mouse lungs used for Flura-tagging in FIG. 3b was dissociated into single cells, and the number of RFP+ cells was quantified using flow cytometry. The total number of MDA231 cells per lung was estimated based on an assumption of 1.5×10^8 cells per mouse lung (20) (n=5). […] RNA reads were aligned to a hybrid genome containing the human and mouse genomes. […]

O=c1[nH]cc(F)c(=O)[nH]1 [5-FU, 5-fluoro-uracil]
immunostaining with anti-BrdU antibody [1]: positive immunostaining

O=[As]O [sodium arsenite]
time to formation of distinct G3BP foci [2]: ≤ 1 h

O=c1cc[nH]c(=S)[nH]1 [thiouracil]
enrichment of human mRNAs compared to mouse mRNAs [3]: approximately 10 fold
